According to patent publication US9174948B2, “Desferrithiocin polyether analogues” (University of Florida Research Foundation, Inc., priority 2007, dated 2015):
Where two headings read alike, the source gives them in different places.

Assays:
[1] = earlier preclinical studies; cited from earlier work
[2] = tested on: Non-Iron-Overloaded Rodents; conditions: rats, po, 300 μmol/kg, historical data; cited from earlier work
[3] = tested on: Iron-Overloaded Cebus apella Primates; conditions: Cebus apella, po, 150 μmol/kg, historical data; cited from earlier work
[4] = tested on: Non-Iron-Overloaded Rodents; assay: Chelator-induced iron clearance in non-iron-overloaded, bile duct-cannulated rats; format: in vivo, rat (male Sprague-Dawley); conditions: po, 300 μmol/kg; for ICE of the polyether relative to that of the parent ligand: 1 vs 3, 4 vs 6, 7 vs 9
Excerpt: Chelator-Induced Iron Clearance in Non-Iron-Overloaded Rodents. […] J. Med. Chem. 2006, 49, 2772-2783]. Recall that iron-clearing efficiency (ICE) is defined as (net iron excretion)/(total iron-binding capacity of the chelator), expressed as a percent. The relative ICE values of compounds 1 and 2 were in keeping with their log Papp values: the more lipophilic, the larger log Papp, the more efficient the chelator. […] However, the ICE trend was in keeping with the biliary ferrokinetics (FIG. 3) and liver concentration of the chelators, for example, 3>1 (FIG. 4).
Cannulation of Bile Duct in Non-Iron-Overloaded Rats has been described previously. […]. […] The urine sample(s) was taken at 24 h intervals. Sample collection and handling are as previously described [Bergeron, R. J., Streiff, R. R., Creary, E. A., Daniels, R. D., Jr., King, W., Luchetta, G., Wiegand, J., Moerker, T. and Peter, H. H. A Comparative Study of the Iron-Clearing Properties of Desferrithiocin Analogues with Desferrioxamine B in a Cebus Monkey Model. Blood 1993, 81, 2166-2173; Bergeron, R. J., Streiff, R. R., Wiegand, J., Vinson, J. R. T., Luchetta, G., Evans, K. M., Peter, H. and Jenny, H.-B. A Comparative Evaluation of Iron Clearance Models. Ann. N.Y. Acad. Sci. 1990, 612, 378-393].
(§1) In the iron-clearing experiments, the rats were given a single 300 μmol/kg dose of drugs 1-9 orally (po).
(§2) J. Med. Chem. 1999, 42, 2432-2440].

[5] = Chelator tissue distribution in rodents; format: in vivo, rat (male Sprague-Dawley); conditions: rats, sc, 300 μmol/kg; for concentration at 0.5 h: male, Sprague-Dawley, rat, plasma
Procedure: Collection of Tissue Distribution Samples from Rodents: Male Sprague-Dawley rats (250-350 g) were given a single sc injection of the monosodium salts of 6 and 9 prepared as described above at a dose of 300 μmol/kg. At times 0.5, 1, 2, and 4 h after dosing (n=3 rats per time point) the animals were euthanized by exposure to CO2 gas. Blood was obtained via cardiac puncture into vacutainers containing sodium citrate. The blood was centrifuged, and the plasma was separated for analysis. The liver, heart, kidneys, and pancreas were then removed from the animals. […] J. Med. Chem. 2006, 49, 2772-2783]. In the current study, tissues from the (S)-3′-(HO)-DADFT-PE (9) and (S)-5′-(HO)-DADFT-PE (6) treated rats were prepared for HPLC analysis by homogenizing them in 0.5 N HClO4 at a ratio of 1:3 (w/v). Then, as a rinse, CH3OH at a ratio of 1:3 (w/v) was added and the mixture was stored at −20° C. for 30 min. This homogenate was centrifuged. The supernatant was diluted with mobile phase A (95% buffer [25 mM KH2PO4, pH 3.0]/5% CH3CN), vortexed, and filtered with a 0.2 μm membrane. Analytical separation was performed on a Discovery RP Amide C16 HPLC system with UV detection at 310 nm as described previously [Bergeron, R. J., Wiegand, J., Weimar, W. R., McManis, J. S., Smith, R. E. and Abboud, K. A. Iron Chelation Promoted by Desazadesferrithiocin Analogues: An Enantioselective Barrier. Chirality 2003, 15, 593-599; Bergeron, R. J., Wiegand, J., Ratliff-Thompson, K. and Weimar, W. R. The Origin of the Differences in (R)- and (S)-Desmethyldesferrithiocin: Iron-Clearing Properties. Ann. N.Y. Acad. Sci. 1998, 850, 202-216]. Mobile phase and chromatographic conditions were as follows: solvent A, 5% CH3CN/95% buffer; solvent B, 60% CH3CN/40% buffer. The concentrations were calculated from the peak area fitted to calibration curves by nonweighted least-squares linear regression with Rainin Dynamax HPLC Method Manager software (Rainin Instrument Co.).

[6] = tested on: Iron-Overloaded Cebus apella Primates; assay: Chelator-induced iron clearance in iron-overloaded Cebus apella primates; format: in vivo; conditions: po, 75 μmol/kg
Excerpt: Chelator-Induced Iron Clearance in Iron-Overloaded Cebus apella Primates. The iron-clearance data for all three sets of ligands are presented (Table 2). […] J. Med. Chem. 2003, 46, 1470-1477]>1 (16.8±7.2%) [Bergeron, R. J., Wiegand, J., McManis, J. S., McCosar, B. H., Weimar, W. R., Brittenham, G. M. and Smith, R. E. Effects of C-4 Stereochemistry and C-4′ Hydroxylation on the Iron Clearing Efficiency and Toxicity of Desferrithiocin Analogues. J. Med. Chem. 1999, 42, 2432-2440], the increase is not significant. Although (S)-4′-(HO)-DADFT-PE (3) is the least lipophilic chelator in the 1-3 series, it is just as efficient (ICE, 25.4±7.4%) [Bergeron, R. J., Wiegand, J., McManis, J. S., Vinson, J. R. T., Yao, H., Bharti, N. and Rocca, J. R. (S)-4,5-Dihydro-2-(2-hydroxy-4-hydroxyphenyl)-4-methyl-4-thiazolecarboxylic Acid Polyethers: A Solution to Nephrotoxicity.
The monkeys (3.5-4 kg) were iron overloaded with intravenous iron dextran as specified in earlier publications to provide about 500 mg of iron per kg of body weight [Bergeron, R. J., Streiff, R. R., Wiegand, J., Luchetta, G., Creary, E. A. and Peter, H. H. A Comparison of the Iron-Clearing Properties of 1,2-Dimethyl-3-hydroxypyrid-4-one, 1,2-Diethyl-3-hydroxypyrid-4-one, and Deferoxamine. Blood 1992, 79, 1882-1890]; the serum transferrin iron saturation rose to between 70 and 80%. At least 20 half-lives, 60 d [Wood, J. K., Milner, P. F. and Pathak, U. N. The Metabolism of Iron-dextran Given as a Total-dose Infusion to Iron Deficient Jamaican Subjects. Br. J. Haematol. 1968, 14, 119-129], elapsed before any of the animals were used in experiments evaluating iron-chelating agents.
Fecal and urine samples were collected at 24-h intervals and processed as described previously [Bergeron, R. J., Streiff, R. R., Creary, E. A., Daniels, R. D., Jr., King, W., Luchetta, G., Wiegand, J., Moerker, T. and Peter, H. H. A Comparative Study of the Iron-Clearing Properties of Desferrithiocin Analogues with Desferrioxamine B in a Cebus Monkey Model. Blood 1993, 81, 2166-2173; Bergeron, R. J., Streiff, R. R., Wiegand, J., Vinson, J. R. T., Luchetta, G., Evans, K. M., Peter, H. and Jenny, H.-B. A Comparative Evaluation of Iron Clearance Models. Ann. N.Y. Acad. Sci. 1990, 612, 378-393; Bergeron, R. J., Wiegand, J. and Brittenham, G. M. HBED: A Potential Alternative to Deferoxamine for Iron-Chelating Therapy. Blood 1998, 91, 1446-1452]. Briefly, the collections began 4 d prior to the administration of the test drug and continued for an additional 5 d after the drug was given. Iron concentrations were determined by flame atomic absorption spectroscopy as presented in other publications [Bergeron, R. J., Streiff, R. R., Wiegand, J., Vinson, J. R. T., Luchetta, G., Evans, K. M., Peter, H. and Jenny, H.-B. A Comparative Evaluation of Iron Clearance Models. Ann. N.Y. Acad. Sci. 1990, 612, 378-393; Bergeron, R. J., Wiegand, J., Wollenweber, M., McManis, J. S., Algee, S. E. and Ratliff-Thompson, K. Synthesis and Biological Evaluation of Naphthyldesferrithiocin Iron Chelators. J. Med. Chem. 1996, 39, 1575-1581].
as §1, §2

[7] = Iron clearance performance ratio in primates versus rodents; format: in vivo, Cebus apella / rat; conditions: mean ICE primates / mean ICE rodents
Excerpt: Iron Clearance Performance Ratio in Primates versus Rodents. The performance ratio (PR), defined as the mean ICEprimates/ICErodents, is noteworthy (Table 3). […] The mean ICE for the primate group can be compared with the mean ICE of the rodent group (Table 3). […] This is not the case with the 5′-polyether (6), whose ICE is virtually identical in the two species. The largest differences in performance ratios generally unfold with the parent ligands 1, 4, and 7.

Question: Which “toxicity / nephrotoxicity in words” value [1] does the source give for `COc1ccc(C2=N[C@@](C)(C(=O)O)CS2)c(O)c1` [Compound 2, (S)-4,5-dihydro-2-(2-hydroxy-4-methoxyphenyl)-4-methyl-4-thiazolecarboxylic acid] here?
Answer: The value was “unacceptably toxic”.

Question: What about the “Iron-Clearing Efficiency (%)” value [2] of the same compound?
Answer: Its value is 6.6±2.8%.

Question: What about the “Iron-Clearing Efficiency (%)” value [3] of the same compound?
Answer: The value was 24.4±10.8%.

Question: What does the source list for `COCCOCCOCCOc1ccc(O)c(C2=N[C@@](C)(C(=O)O)CS2)c1` [Compound 6, (S)-4,5-dihydro-2-[2-hydroxy-5-(3,6,9-trioxadecyloxy)phenyl]-4-methyl-4-thiazolecarboxylic acid]?
Answer: Iron-Clearing Efficiency (%) [4]: 8.0±1.8%; ICE of the polyether relative to that of the parent ligand [4]: 800%; relative percentages of the iron excreted in the bile and urine [4]: 98/2; concentration at 0.5 h ([5]; 0.5 h): 324 ± 20 µM; decrease of liver concentration from 0.5 h to 1 h [5]: 36%; kidney concentration ([5]; 0.5 h): 643±92 nmol/g wet weight; liver concentration ([5]; 0.5 h): 483±85 nmol/g wet weight; drop in plasma concentration relative to 0.5 h ([5]; 1 h): 39%; kidney concentration ([5]; 1 h): 435±111 nmol/g wet weight; drop in plasma concentration relative to 0.5 h ([5]; 2 h): 54%; kidney concentration ([5]; 2 h): 321±20 nmol/g wet weight; pancreas concentration ([5]; 2 h): ≈ 30 nmol/g wet weight; drop in plasma concentration relative to 0.5 h ([5]; 4 h): 82%; kidney concentration ([5]; 4 h): 116±65 nmol/g wet weight; Iron-Clearing Efficiency (%) [6]: 8.1±2.8%; relative percentages of the iron excreted in the stool and urine [6]: 56/44

Question: Which “ICE of 3′-polyether relative to 4′-polyether (3), more effective” value [4] does the source give for `COCCOCCOCCOc1cccc(C2=N[C@@](C)(C(=O)O)CS2)c1O` [Compound 9, (S)-4,5-dihydro-2-[2-hydroxy-3-(3,6,9-trioxadecyloxy)phenyl]-4-methyl-4-thiazolecarboxylic acid] here?
Answer: The value was ~200%.

Question: And the “ICE of the polyether relative to that of the parent ligand” value [4]?
Answer: The value was 230%.

Question: What about the “Iron-Clearing Efficiency (%)” value ([4]; 48 h sample collection period) of the same compound?
Answer: Its value is 10.6±4.4%.

Question: What about the “relative percentages of the iron excreted in the bile and urine” value ([4]; 48 h sample collection period) of the same compound?
Answer: Its value is 95/5.

Question: And the concentration at 0.5 h ([5]; 0.5 h)?
Answer: Its concentration at 0.5 h is 62 ± 24 µM.

Question: And the kidney concentration ([5]; 0.5 h)?
Answer: Its kidney concentration is 280±26 nmol/g wet weight.

Question: And the liver concentration ([5]; 0.5 h)?
Answer: Its liver concentration is 242±38 nmol/g wet weight.

Question: And the “drop in plasma concentration relative to 0.5 h” value ([5]; 1 h)?
Answer: Its value is 26%.

Question: What about the kidney concentration ([5]; 1 h) of the same compound?
Answer: The kidney concentration was 259±35 nmol/g wet weight.

Question: And the liver concentration ([5]; 1 h)?
Answer: The liver concentration was 318±46 nmol/g wet weight.

Question: And the “drop in plasma concentration relative to 0.5 h” value ([5]; 2 h)?
Answer: The value was 61%.

Question: What about the kidney concentration ([5]; 2 h) of the same compound?
Answer: The kidney concentration was 145±27 nmol/g wet weight.

Question: And the pancreas concentration ([5]; 2 h)?
Answer: The pancreas concentration was 16 nmol/g wet weight.

Question: What about the “drop in plasma concentration relative to 0.5 h” value ([5]; 4 h) of the same compound?
Answer: The value was 79%.

Question: What about the kidney concentration ([5]; 4 h) of the same compound?
Answer: The kidney concentration was 90±7 nmol/g wet weight.

Question: And the “Iron-Clearing Efficiency (%)” value [6]?
Answer: The value was 24.5±7.6%.

Question: What about the “relative percentages of the iron excreted in the stool and urine” value [6] of the same compound?
Answer: Its value is 72/28.

Question: Which “ICE Primate/ICE Rodent (performance ratio)” value [7] does the source give for `C[C@]1(C(=O)O)CSC(c2cc(O)ccc2O)=N1` [drawing 24] here?
Answer: Its value is 12.6.

Question: For `COc1ccc(O)c(C2=N[C@@](C)(C(=O)O)CS2)c1` [drawing 25], which “ICE Primate/ICE Rodent (performance ratio)” value [7] is on record?
Answer: Its value is 3.0.

Question: Which “ICE Primate/ICE Rodent (performance ratio)” value [7] does the source give for `COCCOCCOCCOc1ccc(O)c(C2=N[C@@](C)(C(=O)O)CS2)c1` [drawing 26] here?
Answer: The value was 1.0.

Question: For `C[C@]1(C(=O)O)CSC(c2cccc(O)c2O)=N1` [drawing 27], which “ICE Primate/ICE Rodent (performance ratio)” value [7] is on record?
Answer: Its value is 5.0.

Question: Which “ICE Primate/ICE Rodent (performance ratio)” value [7] does the source give for `COc1cccc(C2=N[C@@](C)(C(=O)O)CS2)c1O` [drawing 28] here?
Answer: Its value is 1.8.

Question: With `COCCOCCOCCOc1cccc(C2=N[C@@](C)(C(=O)O)CS2)c1O` [drawing 29] as the compound, how does the “ICE Primate/ICE Rodent (performance ratio)” value [7] read?
Answer: Its value is 2.3.
